Reference: patent US9511074B2, “Methods of treating disorders associated with protein polymerization” (UNIVERSITY OF PITTSBURGH—OF THE COMMONWEALTH SYSTEM OF …, priority 2009, dated 2016)

Experiments:
[1] = test system: wild type AT in the HTO/M cell line; test: Steady state levels of wild type AT in the HTO/M cell line (immunoblot); format: cell-based, human; details: FIG. 1D
Description: (§1) Cell Lines The human epidermal HeLa cell line with doxycycline-regulated expression of ATZ (HTO/Z) has been described previously (1). HTO/M and HTO/Saar are HeLa cell lines with doxycycline-regulated expression of wild type AT and the AT Saar variant, respectively (1). A murine embryonic fibroblast cell line (MEF) with targeted disruption of Atg5 (2) was engineered for stable expression of ATZ using the previously described pRc/RSV-ATZ expression plasmid (3). A wild type MEF cell line was also engineered for stable expression of ATZ in the same way to serve as control. For experiments with CBZ, the inducible cell lines were cultured in the absence of doxycycline for at least 4 weeks for maximal expression of AT. The cells were then subcultured into separate monolayers in fresh complete growth medium and incubated for 48 hours in the absence or presence of CBZ or rapamycin (RAP). CBZ or RAP were added to the growth medium. The duration of incubation with CBZ was determined to be optimal at 48 hours based on experiments in which the duration was varied from 12 to 72 hours. Doses of CBZ were based on previous studies of its effects in cell lines (5,6). […]
(§2) For immunoblot analysis to detect AT, GAPDH or LC3, cells were lysed in 50 mM Tris-HCl, 150 mM NaCl, 1% NP-40, pH 8.0. Protein levels were quantified using the BCA protein assay (Pierce Biotechnology, Rockford, Ill.). […]

PiZ mice = test: Pulmonary fibrosis in PiZ mice (Sirius Red staining with quantitative morphometry); format: in vivo, mouse; details: 3-month-old PiZ mice, 200 mg/kg/day, 5 days per week for 3 weeks
Experimental: Experiments were performed to determine if CBZ can mediate a decrease in lung fibrosis in the PiZ mouse in vivo. 3-month-old PiZ mice were treated 5 days per week for 3 weeks with diluent DMSO or CBZ 200 mg/kg/day (n=3-8 mice per group). In this series of experiments lung fibrosis was assayed by Sirius Red staining with quantitative morphometry.

[2] = test system: BiP in the HTO/Z cell line; test: Steady state levels of BiP in the HTO/Z cell line (immunoblot); format: cell-based, human; details: FIG. 1D
Description: as §1, §2

[3] = test system: ATZ in wild-type mouse embryonic fibroblast (MEF) cell line; test: ATZ levels in wild-type (Atg5+/+) MEF cell line; format: cell-based, murine
Description: as §1, §2

[4] = test system: ATZ in the HTO/Z cell line; test: Pulse labeling and pulse-chase labeling of ATZ in the HTO/Z line; format: cell-based, human
Experimental: Radioimmunoprecipitation, SDS-PAGE and Immunoblot Analysis Biosynthetic labeling, pulse-chase labeling, immunoprecipitation and SDS-PAGE/fluorography for AT followed previously published protocols (1). […] For the pulse labeling experiments, HTO/Z cells were incubated for 48 hours in the absence or presence of CBZ in several different concentrations and then subjected to labeling for 30 mins. The cell lysates were then examined by immunoprecipitation and the immunoprecipitates analyzed by SDS-PAGE/fluorography. For the pulse-chase experiments, HTO/Z cells were incubated for 48 hours in the absence of presence of CBZ 30 μM and then pulse labeled for 30 mins. The cells were then washed and incubated in growth medium without tracer for several different time intervals to constitute the chase. CBZ 30 μM was included during the pulse and chase periods. The extracellular fluid and cell lysate samples were subjected to immunoprecipitation and the immunoprecipitates analyzed by SDS-PAGE/fluorography. All fluorograms were subjected to densitometry. The relative densitometric value of T0 is set at 100% and the remainder of the data set expressed as % of this control. The data are shown as mean+/−SE and the mean value at each time point is shown at the bottom of the figure.

NC(=O)N1c2ccccc2C=Cc2ccccc21 [CBZ, 5H-dibenz [b,f]azepine-5-carboxamide]
wild-type AT levels [1]: did not affect
Sirius red staining of lung (pulmonary fibrosis) (PiZ mice): statistically significant reduction
BiP levels [2]: did not affect
levels of insoluble ATZ ([3]; wild-type MEF cell line): decrease
levels of soluble ATZ ([3]; wild-type MEF cells): decrease
total protein synthesis or secretion (radioactivity in TCA precipitates) ([4]; HTO/Z cells): did not show any effects
synthesis of ATZ ([4]; pulse labeling 30 mins after 48 hours CBZ): did not affect
secretion of ATZ ([4]; pulse-chase, CBZ 30 μM): could not be attributed to enhanced secretion
half-time of disappearance of ATZ from the intracellular compartment ([4]; pulse-chase, CBZ 30 μM, 200 min in untreated cells): 130 min
